Source: publication PMC11923636, “Synthesis, Pharmacological Evaluation, and Molecular Modeling of Phthalimide Derivatives as Monoamine Oxidase and Cholinesterase Dual Inhibitors” (ACS Omega, 2025)
Where “and” joins values, the source holds several entries; their conditions need not be identical. Equal entries are not always repeated.

Assays:
[1] = target: Electrophorus electricus AChE (Electrophorus electricus, UniProt O42275); assay: biochemical; assay type: biochemical; conditions: for IC50: mean ± SEM, n = 3, read-out: IC50 (μM) ± SEM eeAChE; for SI = IC50 of BChE/IC50 of AChE: selectivity index
Procedure: (§1) The synthesized compounds were evaluated for their inhibition potential against cholinesterases (Electrophorus electricus AChE and equine serum lyophilized BChE).
(§2) The cholinesterase in vitro bioassay for the synthesized compounds was performed using already reported protocols.[29],[30] Ellman’s assay method was used to study the inhibition of Electrophorus electricus AChE and Equine Serum lyophilized BChE. Stock solutions of synthesized compounds were prepared in potassium phosphate buffer (pH 8.0). A sufficient amount of 5,5-dithio-bis-2-nitrobenzoic acid (DTNB, Ellman’s reagent), a stock solution of synthesized compounds, and 0.03 U/ml of the enzyme (AChE or BChE) were added to a 96-well plate and incubated at 30 °C for 10 min. Subsequently, 1 mM ATCI or BTCI was added, and the reaction mixture was incubated for 15 min. […] Sample concentration was plotted against inhibitory activity to obtain IC50 values.

[2] = target: T1, equine serum lyophilized BChE (Equus caballus, UniProt P81908); assay: biochemical; conditions: mean ± SEM, n = 3; read-out: IC50 (μM) ± SEM eqBChE
T1 construct: Equine Serum lyophilized BChE; from tissue; host or cells: equine serum
Procedure: as §1, §2

human MAO-A = target: T2, human MAO-A (Homo sapiens, UniProt P21397); assay: Human MAO isoform inhibition assay (fluorometric), MAO-A; assay type: biochemical; conditions: mean ± SEM, n = 3; read-out: IC50 (μM) ± SEM hMAO-A
T2 sequence (P21397 1-527): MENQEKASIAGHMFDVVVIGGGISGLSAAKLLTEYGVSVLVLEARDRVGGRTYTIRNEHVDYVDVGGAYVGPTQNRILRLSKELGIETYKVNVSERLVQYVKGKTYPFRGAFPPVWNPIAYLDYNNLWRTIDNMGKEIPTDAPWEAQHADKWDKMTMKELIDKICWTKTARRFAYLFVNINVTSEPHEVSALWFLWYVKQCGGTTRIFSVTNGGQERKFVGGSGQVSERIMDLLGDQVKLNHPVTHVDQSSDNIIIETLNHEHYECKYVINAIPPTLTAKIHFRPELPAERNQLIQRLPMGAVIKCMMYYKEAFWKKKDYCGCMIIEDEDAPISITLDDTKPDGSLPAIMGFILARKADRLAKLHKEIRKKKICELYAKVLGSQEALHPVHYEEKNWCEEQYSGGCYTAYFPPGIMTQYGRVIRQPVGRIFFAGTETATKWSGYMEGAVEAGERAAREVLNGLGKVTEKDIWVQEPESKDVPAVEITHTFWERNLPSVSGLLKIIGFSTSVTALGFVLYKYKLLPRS
Procedure: (§3) The human MAO isoform assay was also carried out using a fluorescence-based assay protocol according to the reported literature.
(§4) Inhibitory activity of the synthesized compounds against MAO isoforms, specifically human MAO-A and MAO-B, was determined by using benzylamine and tyramine substrates in the dark (protected from light) in a 96-well plate by an already reported fluorometric method.[31],[32]

human MAO-B = target: T3, human MAO-B (Homo sapiens, UniProt P27338); assay: Human MAO isoform inhibition assay (fluorometric), MAO-B; assay type: biochemical; conditions: for IC50: mean ± SEM, n = 3, read-out: IC50 (μM) ± SEM hMAO-B; for SI (IC50 hMAO-A/IC50 hMAO-B): selectivity index
T3 sequence (P27338 1-520): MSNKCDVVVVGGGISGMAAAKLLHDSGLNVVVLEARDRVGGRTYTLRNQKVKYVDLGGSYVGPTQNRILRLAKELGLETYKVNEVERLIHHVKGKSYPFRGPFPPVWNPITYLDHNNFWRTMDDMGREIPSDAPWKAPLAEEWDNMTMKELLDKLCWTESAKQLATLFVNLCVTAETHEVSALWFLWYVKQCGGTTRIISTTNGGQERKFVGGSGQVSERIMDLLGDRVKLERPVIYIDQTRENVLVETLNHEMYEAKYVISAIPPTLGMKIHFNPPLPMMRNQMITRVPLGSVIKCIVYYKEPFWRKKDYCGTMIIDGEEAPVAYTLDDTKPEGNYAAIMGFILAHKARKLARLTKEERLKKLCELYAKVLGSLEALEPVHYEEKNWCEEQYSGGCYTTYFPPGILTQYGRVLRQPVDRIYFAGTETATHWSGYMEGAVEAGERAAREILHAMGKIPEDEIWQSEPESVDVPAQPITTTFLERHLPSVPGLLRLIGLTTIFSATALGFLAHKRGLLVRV
Procedure: as §3, §4

AChE = conditions: cited from earlier work
BChE = conditions: read-out: BChE enzyme inhibition dissociation constant (Ki value); cited from earlier work
in vitro = assay: in vitro
Procedure: A fundamental requirement for the effectiveness of anti-AD drugs is their capability to traverse the BBB (blood–brain barrier). […]
Briefly, synthesized compounds were first dissolved in DMSO (10 mM) that was further diluted by the addition of phosphate buffer ([…]) having a pH of 7.4. PBL dissolved in dodecane was used for coating the membranes of the donor plates. Then, the test compound (0.2 mL) was added to the plate, followed by PBS (0.2 mL; pH = 7.4) to the acceptor plate, which was further placed under the donor plate in order to form a “sandwich”. […] A UV plate reader was employed for the measurements of the drug concentration in donor, acceptor, and reference wells. The permeability (Pe) of the compounds was measured by using the following formula. [drawing 2]

T1 sequence (P81908 whole entry): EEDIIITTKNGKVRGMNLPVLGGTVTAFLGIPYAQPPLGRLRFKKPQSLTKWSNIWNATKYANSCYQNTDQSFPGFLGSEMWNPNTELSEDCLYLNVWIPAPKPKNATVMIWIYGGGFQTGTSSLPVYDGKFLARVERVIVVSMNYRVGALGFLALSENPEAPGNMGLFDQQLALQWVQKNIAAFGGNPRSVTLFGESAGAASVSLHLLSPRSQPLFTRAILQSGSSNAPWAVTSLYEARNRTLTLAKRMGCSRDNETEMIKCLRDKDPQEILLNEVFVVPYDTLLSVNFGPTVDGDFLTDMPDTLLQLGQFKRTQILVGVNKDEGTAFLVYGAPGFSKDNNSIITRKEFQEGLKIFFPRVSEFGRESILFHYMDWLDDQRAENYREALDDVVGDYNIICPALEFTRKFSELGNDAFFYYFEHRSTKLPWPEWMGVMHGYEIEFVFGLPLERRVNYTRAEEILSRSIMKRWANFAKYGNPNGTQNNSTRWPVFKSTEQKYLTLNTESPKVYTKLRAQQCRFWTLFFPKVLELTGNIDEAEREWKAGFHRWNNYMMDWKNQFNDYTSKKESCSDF
Chain of Electrophorus electricus AChE (O42275 24-633): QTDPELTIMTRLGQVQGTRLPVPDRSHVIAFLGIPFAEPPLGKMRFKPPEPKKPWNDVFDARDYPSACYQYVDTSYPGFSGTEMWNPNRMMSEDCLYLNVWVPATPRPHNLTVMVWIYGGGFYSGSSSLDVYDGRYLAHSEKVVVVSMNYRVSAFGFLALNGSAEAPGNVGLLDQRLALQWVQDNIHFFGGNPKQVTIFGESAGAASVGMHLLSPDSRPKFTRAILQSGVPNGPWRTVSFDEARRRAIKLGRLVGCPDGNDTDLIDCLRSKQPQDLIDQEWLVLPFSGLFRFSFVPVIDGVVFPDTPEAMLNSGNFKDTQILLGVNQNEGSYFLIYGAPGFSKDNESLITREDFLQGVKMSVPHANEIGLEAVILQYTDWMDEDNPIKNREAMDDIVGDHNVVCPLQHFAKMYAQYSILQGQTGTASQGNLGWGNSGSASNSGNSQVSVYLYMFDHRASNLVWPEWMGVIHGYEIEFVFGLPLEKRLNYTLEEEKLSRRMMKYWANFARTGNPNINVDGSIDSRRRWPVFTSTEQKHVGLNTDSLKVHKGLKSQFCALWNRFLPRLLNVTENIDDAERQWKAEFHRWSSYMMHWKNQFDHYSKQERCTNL

SMILES: O=C1c2ccccc2C(=O)N1Cc1ccc(-c2cccc3ccccc23)cc1 [3j]
- IC50 [1]: 0.61 ± 0.03 µM
- SI = IC50 of BChE/IC50 of AChE [1]: 31
- IC50 [2]: 18.9 ± 1.08 µM
- IC50 (human MAO-A): 6.98 ± 0.2 µM
- IC50 (human MAO-B): 0.13 ± 0.01 µM
- SI (IC50 hMAO-A/IC50 hMAO-B) (human MAO-B): 53

SMILES: O=C1c2ccccc2C(=O)N1Cc1ccc(-c2ccc3c(c2)OCO3)cc1 [3k]
- IC50 [1]: 21.1 ± 0.47 µM
- SI = IC50 of BChE/IC50 of AChE [1]: 3.8 and 4
- IC50 [2]: 80.7 ± 1.54 µM
- IC50 (human MAO-A): 40.4 ± 1.31 µM
- IC50 (human MAO-B): 0.66 ± 0.03 µM
- SI (IC50 hMAO-A/IC50 hMAO-B) (human MAO-B): 61

SMILES: O=C1c2ccccc2C(=O)N1Cc1ccc(-c2cccs2)cc1 [3l]
- IC50 [1]: 0.91 ± 0.02 µM
- SI = IC50 of BChE/IC50 of AChE [1]: 61
- IC50 [2]: 55.3 ± 1.31 µM
- IC50 (human MAO-A): 8.29 ± 0.33 µM
- IC50 (human MAO-B): 0.14 ± 0.01 µM
- SI (IC50 hMAO-A/IC50 hMAO-B) (human MAO-B): 59

SMILES: Cc1ccc2cc(-c3ccc(CN4C(=O)c5ccccc5C4=O)cc3)ccc2n1 [3m]
- IC50 [1]: 0.89 ± 0.1 µM
- SI = IC50 of BChE/IC50 of AChE [1]: 35
- IC50 [2]: 31.1 ± 0.79 µM
- IC50 (human MAO-A): 23.5 ± 1.12 µM
- IC50 (human MAO-B): 0.15 ± 0.01 µM
- SI (IC50 hMAO-A/IC50 hMAO-B) (human MAO-B): 156

SMILES: O=C1c2ccccc2C(=O)N1C/C=C/CN1CCN(Cc2ccccc2)CC1 [III]
- Ki (AChE; read-out: AChE enzyme inhibition dissociation constant (Ki value)): 193 µM

SMILES: COc1cc(CN2C(=O)c3cc(Cl)c(Cl)cc3C2=O)cc(OC)c1OC [II]
- IC50 (AChE; reported in the literature, ref number not given): 13.5 nM

SMILES: O=C1c2ccccc2C(=O)N1CCc1cc2ccccc2[nH]1 [IV]
- Ki (BChE): 100 µM

SMILES: C[C@H](NCc1ccc(OCc2cccc(F)c2)cc1)C(N)=O [safinamide, reference compound]
- Papp at 20 h (in vitro; PAMPA, pH 7.4): 7.56 ± 0.02 ×10⁻⁶ cm/s
- prediction of CNS penetration (in vitro; class from PAMPA-BBB Pe): CNS+ (“CNS+” (prediction of high BBB permeation); Pe (10^–6 cm/s) > 4.39)
